From patent US20080268477A1, “Antibody Reactive Specifically to Age Derived from 3,4-Dge” (JMS CO., LTD., priority 2005, published 2008)
Each block holds one compound with its values, some of them ahead of it.

What was measured:
BSA [1] = biological target: T1, BSA (Bos taurus, UniProt P02769); test: fluorescence intensity of reaction solution of carbonyl compound and BSA (Reference Example 1); design: species or system bovine; conditions: excitation 360 nm, fluorescence 430 nm
T1 construct: purchased SIGMA A-0281
Description: AGEs were formed from proteins, BSA, using carbonyl compounds (3,4-DGE, MGO, GO, 3-DG, and Glu). First, BSA (manufactured by SIGMA; Trade Name: A-0281) was dissolved in PBS (pH 7.4) so as to have a concentration of 5 mg/ml (6.2 mM of basic amino acid residues). Thus a BSA solution was prepared. Then each carbonyl compound was added to the BSA solution so as to have a concentration of 25 mM (4-equivalent relative to the basic amino acid residues in the BSA). This was incubated at 37° C. for predetermined times (2, 4, 8, 24, 72, and 168 hours). […]
The reaction solutions incubated as described above were sampled and these reaction solutions thus sampled were applied to desalting columns (Trade Name: PD-10, manufactured by Amersham Pharmacia Biotech) to be desalted. With respect to the reaction solutions thus desalted, the BSA concentration was measured using BCA protein assay kit (manufactured by Pierce). […] Then the fluorescence intensity was measured at an excitation wavelength of 360 nm and a fluorescence wavelength of 430 nm (measuring apparatus: Trade Name SPECTRAFLUOR PLUS, manufactured by TECAN). […]

BSA [2] = biological target: T1, BSA; test: appearance (browning) of reaction solution of carbonyl compound and BSA; design: species or system bovine; conditions: 25 mM carbonyl compound, BSA 5 mg/ml, 37° C.; for browning of reaction solution: 168 hours
Description: AGEs were formed from proteins, BSA, using carbonyl compounds (3,4-DGE, MGO, GO, 3-DG, and Glu). First, BSA (manufactured by SIGMA; Trade Name: A-0281) was dissolved in PBS (pH 7.4) so as to have a concentration of 5 mg/ml (6.2 mM of basic amino acid residues). Thus a BSA solution was prepared. Then each carbonyl compound was added to the BSA solution so as to have a concentration of 25 mM (4-equivalent relative to the basic amino acid residues in the BSA). This was incubated at 37° C. for predetermined times (2, 4, 8, 24, 72, and 168 hours). The respective carbonyl compounds used herein were 500 mM 3,4-DGE aqueous solution (prepared in house), 40% MGO aqueous solution (manufactured by SIGMA), 40% GO aqueous solution (manufactured by Wako Pure Chemical Industries, Ltd.), 3-DG (manufactured by Dojindo Laboratories Co., Ltd.), and Glu (Pharmacopeia, manufactured by San-ei Sucrochemical Co, Ltd.). The BSA solution was incubated in the same manner as described above, with no carbonyl compounds being added thereto. This was used as a control. The appearances of the reaction solutions obtained after 168 hours incubation are shown in the photograph in FIG. 9.

BSA [3] = biological target: T1, BSA; test: reactivity with protein by fluorescence intensity (Reference Example 2); design: species or system bovine; conditions: 30 mmol/L carbonyl compound, BSA 10 mg/ml, 37° C., 24 hours
Description: BSA was dissolved in PBS (pH 7.4) so as to be 10 mg/ml. Various carbonyl compounds each were added thereto in such a manner as to have a concentration of 30 mmol/L. Then they were allowed to react at 37° C. for 24 hours. After the reaction, denaturation (AGE formation) of the BSA was evaluated according to the fluorescence intensity (at an excitation wavelength of 360 nm and a fluorescence wavelength of 430 nm) of the reaction solutions.

BSA [4] = biological target: T1, BSA; test: amino acid analysis of Arg and Lys residues in reaction product; design: species or system bovine; conditions: residual ratio vs untreated native BSA
Description: The aforementioned sample solutions were freeze-dried and then were acid-hydrolyzed in 6N hydrochloric acid (120° C., 24 hours). According to a conventionally known method, these were derivatized with dansyl chloride and were isolated with HPLC. Then the amounts of arginine (Arg) and lysine (Lys) residues in the samples were determined (n=3). FIG. 11(A) is a graph showing the residual ratios of the Arg residues, while FIG. 11(B) is a graph showing the residual ratios of the Lys residues. The residual ratio indicates a percentage that is obtained with the amount of residues in untreated native BSA being taken as 100%.

BSA [5] = biological target: T1, BSA; test: SDS-PAGE of reaction product; design: species or system bovine; conditions: samples of 2 to 168 hours reaction
Description: The samples obtained using 3,4-DGE and MGO each were subjected to SDS-PAGE. The results are shown in the electrophoretograms in FIG. 13. […] The lanes show the results with respect to the molecular-weight marker, native BSA, and samples (2, 4, 8, 24, 72, and 168 hours) sequentially from the left.

BSA [6] = biological target: T1, BSA; test: ELISA for known AGEs (pentosidine, CML, MRX) in reaction product; design: species or system bovine
Description: With respect to the above-mentioned sample solutions obtained using the carbonyl compounds (3,4-DGE, 3-DG, GO, and MGO), it was evaluated by ELISA whether pentosidine, carboxymethyllysine (CML), and Maillard reaction products (MRX: 8-hydroxy-5-methyldihydrothiazolo[3,2-alpha]) that were known AGEs had been produced or not. As a result, in the reaction solution obtained using GO, production of CML of 3.025 molecules per BSA molecule was found already after 24 hours incubation and production of CML of 3.7 molecules per BSA molecule was found after 168 hours incubation. In the reaction solution obtained using MGO, pentosidine of 0.0028 molecule per BSA molecule was found after 168 hours incubation. […] Accordingly, it can be said that the AGEs formed with 3,4-DGE are clearly different from conventionally known AGEs.

BSA [7] = biological target: T1, BSA; test: isoelectric focusing of reaction product; design: species or system bovine; conditions: reaction product with BSA
Description: A pI marker was electrophoresed beforehand and then a calibration curve between pI and mobility was created. Then the aforementioned sample solutions also were electrophoresed. With a region stained deepest in each sample being taken as the center of the band, the isoelectric point was calculated using the calibration curve.

[8] = system: Human peritoneal mesothelial cells (HPMCs); test: cytotoxic test of AGE-proteins (WST-1); assay type: cell-based; conditions: 1 mg/mL AGE-protein, four days
Description: In order to examine the biological activities of AGE-proteins derived from various carbonyl compounds, a cytotoxic test was carried out. The AGE-proteins used herein were 3,4-DGE-BSA, MGO-BSA, GO-BSA, and AA-BSA that had been prepared in the same manner as in Example 3.
Human peritoneal mesothelial cells (HPMCs) that had been suspended in FBS-M199 medium were seeded into a 96-well plate (manufactured by Iwaki) in an amount of 3400 cells/well and then were cultured overnight. Adherent cells in each well were exposed to M199 medium (0.1 ml/well) containing 8.4% FBS in which AGE-proteins had been dissolved in such a manner as to be 1 mg/mL, and were cultured for four days. After completion of the exposure, the medium was removed. Thereafter, the adherent cells were cultured in M199 medium containing a 10% chromogenic substrate (Trade Name: WST-1; manufactured by TAKARA BIO, INC.). Then the absorbance at a wavelength of 450 nm was measured 40 minutes later and thereby the viable cell count was determined. The result is shown in the graph in FIG. 15. In FIG. 15, “DGE-BSA” denotes “3,4-DGE-BSA”.

T1 sequence (P02769 25-607): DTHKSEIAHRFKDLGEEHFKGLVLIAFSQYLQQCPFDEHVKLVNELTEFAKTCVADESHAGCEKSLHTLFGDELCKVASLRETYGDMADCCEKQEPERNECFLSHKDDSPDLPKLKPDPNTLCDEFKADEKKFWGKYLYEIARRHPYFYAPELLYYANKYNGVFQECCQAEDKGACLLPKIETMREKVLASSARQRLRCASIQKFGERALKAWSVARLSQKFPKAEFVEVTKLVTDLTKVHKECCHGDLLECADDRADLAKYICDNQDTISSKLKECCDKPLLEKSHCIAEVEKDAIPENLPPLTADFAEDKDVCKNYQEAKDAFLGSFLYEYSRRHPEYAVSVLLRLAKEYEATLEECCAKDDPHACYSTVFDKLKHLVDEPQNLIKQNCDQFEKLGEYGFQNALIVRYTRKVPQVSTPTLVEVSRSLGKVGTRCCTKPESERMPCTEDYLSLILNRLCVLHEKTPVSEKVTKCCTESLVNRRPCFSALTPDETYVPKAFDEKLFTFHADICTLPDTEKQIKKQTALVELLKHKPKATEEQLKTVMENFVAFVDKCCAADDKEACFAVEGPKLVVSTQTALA

reaction time at which fluorescence nearly achieved equilibrium (BSA [1]): ~24 h | fluorescence intensity (BSA [1]; compared to other carbonyl compounds): very high fluorescence intensity | time until reaction solution was colored (BSA [2]): approximately two | browning of reaction solution (BSA [2]): deep brown | fluorescence of BSA solution (AGE formation) (BSA [3]): very strong fluorescence | free Arg and Lys residues in reaction product (BSA [4]): reduced
Compound: O=CC(=O)C=CC(O)CO (stereo not shown) [3,4-DGE, 3,4-dideoxyglucosone-3-ene]
change in SDS-PAGE band (BSA [5]): disturbance in the band is observed after 2 to 4 hours reaction | production of CML, pentosidine, MRX (BSA [6]; ELISA of reaction solution): production of neither CML, pentosidine, or MRX was found | change in isoelectric point (BSA [7]): shift toward the acidic side after 24 hours reaction

Compound: CC(=O)C=O [MGO, methylglyoxal]
browning of reaction solution (BSA [2]): observed | pentosidine (BSA [6]; after 168 hours incubation): 0.0028 molecule per BSA molecule

browning of reaction solution (BSA [2]): observed
Compound: O=CC(=O)C[C@H](O)[C@H](O)CO [Example 3-DG, 3-deoxyglucosone]

Compound: 3,4-DGE-BSA: AGE-protein formed from bovine serum albumin with 3,4-DGE
activity of the cells (viable cell count) [8]: approximately 25%

Compound: O=CC=O [GO, glyoxal]
browning of reaction solution (BSA [2]): observed | production of CML (BSA [6]; after 24 hours incubation): 3.025 molecules per BSA molecule | production of CML (BSA [6]; after 168 hours incubation): 3.7 molecules per BSA molecule
